Consider six compounds from PMC7146288, “Microwave Assisted Synthesis of 4-Phenylquinazolin-2(1H)-one Derivatives that Inhibit Vasopressor Tonus in Rat Thoracic Aorta” (Molecules, 2020).

Data set [1] concerns rat thoracic aorta rings, endothelium-intact (E+). Put plainly: Vascular reactivity: vasorelaxation in endothelium-intact (E+) aortic rings pre-contracted with Phe 1 µM. The settings on record: for IC50: Rattus norvegicus, rings pre-contracted with Phe 1 µM, cumulative 1-30 µM, mean ± SEM, read-out: IC50 vasorelaxation response in endothelium-intact (E+) aorta arterial vessels; for relaxation at the highest concentration: 30 μM, endothelium-intact aorta rings pre-contracted with Phe 1 µM. Also on record: species or system Male Wistar normotensive rats (Rattus norvegicus). As to the method: (§1) All compounds were dissolved with DMSO 100% to obtain a stock solution of 10 mM. In all experiments, the stock solution was employed to obtain a final concentration diluted in Krebs Henseleit solution (vascular reactivity assay) and DMEM supplemented with 10% FBS (cytotoxicity assay).
Male Wistar normotensive rats (Rattus norvegicus) weighing between 200 and 300 grams were supplied by the Central Animal Facility of Fluminense Federal University (NAL-UFF) (Rio de Janeiro, Brazil). The animals were kept in standard environmental conditions of temperature (22 ± 1 °C) and 12 h light/dark cycle, with free access to food (Purina, Brazil) and water. All experiments were conducted in accordance to the guidelines established by National Council for Animal Experimentation Control (CONCEA, Brazil). This study was approved by the Ethics Committee in the Use of Animals of the Fluminense Federal University (CEUA-UFF), certificate under protocol number: 795/2017.
(§2) Animals were anesthetized by isoflurane (1% mg/kg) inhalation and, after the loss of motor control, rats were euthanized by cervical dislocation. Subsequently, the thoracic aorta was dissected and cleaned of connective tissue to obtain rings 4 mm in length that were suspended in a 15 mL organ bath (Panlab four chamber organ bath, AD-Instruments, Sydney, Australia). Tissues were kept in Krebs Henseleit solution at 37 °C with the following composition (mM): NaCl 120; KCl 5.0; MgCl2 1.1; CaCl2 2.5; NaH2PO4 1.2; N-[2-hydroxyethyl] piperazine-N’-[2-ethane-sulfonic acid] (HEPES) 10; NaHCO3 15; and glucose 11, bubbled constantly with a gas mixture of 95% O2 and 5% CO2 (pH 7.4). Each arterial segment was suspended between two steel hooks connected to an isometric transducer to measure tension through a data acquisition system (PowerLab 8 and LabChart Pro, AD-Instruments, Australia). […] Functional endothelial integrity was assessed by the ability of 10 µM ACh to induce ≥70% relaxation in vessels pre-contracted with 1 µM Phe.
Values are expressed as mean ± standard error of mean (SEM). A P-value less than 0.05 was termed statistically significant. The IC50 values (defined as the concentration of the test compound that reduced 50% of the maximal contraction) were obtained by actual concentration-response curve fitting using GraphPad Prism 6.0 software (GraphPad Software, San Diego, CA). Statistical significance was determined using Bonferroni´s multiple comparison for vascular reactivity experiments and using Turkey´s multiple comparison for cytotoxicity evaluation following two-way analysis of variance (ANOVA).
Figure 3 Concentration-response curves for compounds 2a–f and control (vehicle: DMSO) in intact endothelium aortic rings pre-contracted with Phe 1 µM. Cumulative concentrations (1 µM, 3 µM, 10 µM and 30 µM) were added to the Phe contraction plateau. DMSO was employed at the same volume used to dissolve the compound stock solution (maximum final concentration at 0.3%). All data are expressed as mean ± standard error of the mean (SEM) (n = 4–5). (* P < 0.05; *** P < 0.001; **** P < 0.0001 compound vs. control).

The next data set has as its system VERO cells. Kind of data set: MTT cell viability (cytotoxicity) assay. The data set is classed as cell-based, African Green monkey (Cercopithecus aethiops). As to conditions: 30 µM, 48 h exposure. As to the method: as §1
(§3) A 3-[4,5-dimehyl-2-thiazolyl]-2,5-diphenyl-2H-tetrazoliumbromide (MTT) assay was employed to assess the general cytotoxicity for 4-phenylquinazolin-2(1H)-one derivatives. […]
(§4) The MTT cell viability assay investigates the number of viable cells by measuring the mitochondrial-dependent reduction of water-soluble tetrazolium into an insoluble formazan product. The absorbance obtained is directly proportional to the activity of functional mitochondria and represents the number of viable cells. […] Absorbance was measured with a plate reader (SpectraMax 190, CA, USA) at a wavelength of 550 nm and expressed as a percentage of the control (vehicle).
(§5) Figure 5 Cell viability assessed by the MTT method on the VERO cell line after 48 h of exposure to the compounds. […] All data are expressed as mean ± standard error of the mean (SEM) (n = 22–25). […]

A short description of data set [2]: MTT cell viability (cytotoxicity) assay. Type of data set: cell-based, African Green monkey (Cercopithecus aethiops). As to conditions: African green monkey (Cercopithecus aethiops), VERO kidney cells, 48 h exposure, % of vehicle control, read-out: percentage of cell viability (living cells). As to the method:
as §1, §3, §4, §5

Data set [3] has as its system rat thoracic aorta rings, endothelium-denuded (E−). Put plainly: Vascular reactivity: vasorelaxation in endothelium-denuded (E−) aortic rings pre-contracted with Phe 1 µM. Also on record: species or system Male Wistar normotensive rats (Rattus norvegicus). As to conditions: endothelium-denuded rings pre-contracted with Phe 1 µM; cumulative up to 30 µM. Here is the method:
A representative record of cumulative concentrations of compound 2f (1 μM, 3 μM, 10 μM and 30 μM) on aortic rings endothelium-intact and endothelium-denuded pre-contracted with Phe 1 μM are shown in Figure 4. Phe induced a steady tone in both preparations that were greater in endothelium denuded rings.
as §2, with “7.4).” for “7.4). Each arterial segment was suspended between two steel hooks connected to an isometric transducer to measure tension through a data acquisition system (PowerLab 8 and LabChart Pro, AD-Instruments, Australia).”
Figure 4 Concentration-response curves of compound 2f in endothelium-intact (E+) and endothelium-denuded (E−) aortic rings pre-contracted with Phe 1 µM. […] All data are expressed as mean ± standard error of the mean (SEM) (n = 4). […]

“Also recorded” adds a separate entry of the source.

One may read the IC50 as the concentration at which inhibition is half-maximal. As for `O=c1nc(-c2ccccc2)c2ccccc2[nH]1` [Compound 2a], the IC50 in data set [1] amounted to 39.7 ± 6.77 µM.

The term viability denotes the share of living cells, or the viability signal relative to a control. Turning to `O=c1nc(-c2ccccc2)c2cc([N+](=O)[O-])ccc2[nH]1` [Compound 2b], the IC50 in data set [1] is 16.4 ± 3.5 µM. Also, the “cytotoxicity according to ISO 10993: 5 (viability below 70% = cytotoxic)” value in the data set with VERO cells is recorded as “cytotoxic; also recorded: induced cytotoxicity”. In addition, in data set [2], the viability at 48 h, 30 µM turned out to be 69%.

Take `Cc1ccccc1-c1nc(=O)[nH]c2ccc(Cl)cc12` [Compound 2c]: in data set [1], the “relaxation at the highest concentration” value is on record as “around 90%” and the IC50 was found to be 4.31 ± 0.9 µM.

For `O=c1nc(-c2ccccc2F)c2cc(Cl)ccc2[nH]1` [Compound 2d], the IC50 in data set [1] came out at 26.5 ± 8.98 µM.

On to `O=c1nc(-c2ccccc2)c2cc(Br)ccc2[nH]1` [Compound 2e], for which, in data set [1], the “relaxation at the highest concentration” value is on record as “around 90%” and the IC50 amounted to 4.94 ± 1.21 µM.

`Cn1c(=O)nc(-c2ccccc2)c2cc(Cl)ccc21` [Compound 2f]: in data set [1], the “relaxation at the highest concentration” value was “around 90%” and the IC50 turned out to be 3.41 ± 0.65 µM. Further, in data set [3], the “vasorelaxation in the absence of the endothelium” value is on record as “abolished”.
